Source: patent publication US20100168085A1, “Dopamine and agonists and antagonists thereof for modulation of suppressive activity of CD4+CD25+ regulatory T cells” (YESA RESEARCH AND DEVELOPMENT CO. LTD. at the Weizmann …, priority 2003, published 2010)

What was measured:
[1] = test system: phospho-ERK1/2 in Treg and Teff; assay: ERK1/2 phosphorylation (intracellular FACS staining, Western blot); assay type: cell-based, mouse
Experimental: (ix) FACS analysis of intracellular labeling of phosphorylated form of ERK. T-cell subpopulations were fixed in 1.5% formaldehyde for 10 min at room temperature, washed, resuspended with vortexing in cold 100% methanol, and incubated for 1 h at 4° C. The cells were then washed with PBS containing 1% bovine serum albumin (BSA) and resuspended in 100 μL of PBS/BSA, and 12.5 μL of anti-phosphoERK1 & 2 (BioSource) was added for 20 min at room temperature. The cells were then washed, resuspended in PBS, and analyzed by FACSCalibur (Becton-Dickinson). As a negative control we incubated the phospho-peptide for 20 min with its antibody and then added the mixture to T cells.
(xix) Western blotting. Cells were stimulated for 20 min with anti-CD3 and anti-CD28 antibodies in the presence or absence of dopamine or SKF-38393. Cell lysates were prepared using RIPA lysis buffer (50 mM Tris, pH 8; 0.1% SDS; 0.5% deoxycholate; 1% NP40; 500 mM NaCl; 10 mM MgCl2) and were then kept on ice for 10 min before being vortexed and centrifuged. Supernatants were collected and 5× sample buffer (containing 25 mM Tris pH 6.8, 2% sodium dodecyl sulfate (SDS), 10% glycerol, 0.1% bromophenol blue, 0.5 M β-mercaptoethanol) was added prior to boiling. Cell extracts were separated by SDS-PAGE (10% polyacrylamide), and blotted onto nitrocellulose. Activated ERK1/2 was detected by probing blots with a 1:30,000 dilution of monoclonal antibody. Total ERK protein was detected by using a 1:10,000 dilution of a polyclonal rabbit antibody. The blots were developed by horseradish peroxidase-conjugated anti-mouse or anti-rabbit Fab and ECL (Amersham). Signals were quantified using NIH Image 1.62.
Treg were activated for 20 min in the presence or absence of dopamine (10^−5 M), and were then subjected to intracellular phosphoprotein staining (Perez and Nolan 2002) and analyzed by flow cytometry. […] As a measure of the background nonspecific staining of the phosphorylated ERK we used a specific peptide of phospho-ERK, which competes for binding of the antibody. The intracellular staining procedure for phospho-ERK detection by FACS was validated by the use of Teff incubated with 20 μM phorbol 12-myristate 13-acetate (PMA), known to stimulate the activity of protein kinase C (PKC) (data not shown).

[2] = test system: adhesion of Treg and Teff to fibronectin
Experimental: One of the main features of T cells is their ability to migrate to tissues in need of rescue or repair [such as diseased or damaged CNS (Hickey, 1999; Flugel et al., 2001). […] We therefore incubated Treg with dopamine for 2 h and then examined their adhesion to chondroitin sulfate proteoglycans (CSPG), extracellular matrix proteins often associated with injured tissues (Jones et al., 2003).

[3] = test system: solid tumor cells M2R; details: Treg 2×10^6 cells exposed to dopamine 10^−5 M
Text: In another experiment, mice (n=10) were inoculated with solid tumor cells M2R, and received an immediate injection of Treg (2×10^6 cells) with and without exposure to dopamine (10^−5M). Control animals (n=10) received an injection of vehicle (PBS) following cancer cells inoculation.

[4] = test system: CTLA-4 on Treg; assay: FACS analysis of CTLA-4 expression; assay type: cell-based, mouse; details: Treg activated 24 h, 2 h with compound, stained 24 h later
Experimental: (vii) FACS analysis of CTLA-4-expressing CD4^+ T cells. Cells were immunostained according to the manufacturer's instructions, resuspended in 0.4 mL of 1% paraformaldehyde, and analyzed by FACSort (Becton-Dickinson), with 10,000 events scored. […] The cells were scored from a region defined according to physical parameters that indicate the size (forward scatter) and granularity (side scatter) of lymphocytes. CD4^+ lymphocytes were then gated for analysis of CTLA-4 expression.
To gain further insight into the mechanism whereby dopamine affects Treg activity we examined CTLA-4, a molecule characteristic of Treg (Im et al., 2001).

[5] = test system: D1-R transcripts in Treg and Teff; details: 2 h with 10^−5 M
Experimental: (xx) Polymerase chain reaction (PCR). Total RNA was purified with the RNeasy Mini Kit (Qiagen, Germantown, Md.) and transcribed into cDNA using poly dT primers. For PCR the following primers were used: […]
This was done by assaying the expression of the dopamine type-1 receptors, D1-R and D5-R, in Treg and Teff, in the absence and in the presence of dopamine (incubation of the cells for 2 h with 10^−5 M dopamine).

SMILES: NCCc1ccc(O)c(O)c1 [dopamine, 3,4-dihydroxyphenethylamine]
- Phosphorylated ERK in activated Treg, flow cytometry ([1]; 10^−5 M, activation 20 min): Significantly less phosphorylated ERK
- Phospho-ERK1/2 levels in Teff, Western blot ([1]; activation 20 min): did not cause a significant change
- Phospho-ERK1/2 in activated Treg, Western blot ([1]; activation with anti-CD3 and anti-CD28 for 20 min): down-regulated
- Adhesion of Teff to fibronectin [2]: slight increase
- Adhesion of Treg to fibronectin [2]: no effect
- Tumor development in mice injected with Treg exposed to dopamine [3]: did not differ from control mice
- CTLA-4 expression on Treg [4]: slightly but consistently decreased
- Number of D1-R transcripts in Treg or Teff [5]: did not significantly alter
